Assay results reported in BindingDB's records for patent US11884671 (AstraZeneca, 2024).

Columns and labels:
[1] = target: Aurora kinase B (Homo sapiens, UniProt Q96GD4); assay: Enzyme Assay
Procedure: Aurora B (AurB): The 2×AURKB (Aurora B)/Ser/Thr 01 (ThermoFisher Scientific proprietary) mixture was prepared in 50 mM HEPES pH 7.5, 0.01% BRIJ-35, 10 mM MgCl2, 1 mM EGTA.

[2] = target: T1, Aurora kinase A (Homo sapiens, UniProt O14965)
T1 sequence (O14965 whole entry): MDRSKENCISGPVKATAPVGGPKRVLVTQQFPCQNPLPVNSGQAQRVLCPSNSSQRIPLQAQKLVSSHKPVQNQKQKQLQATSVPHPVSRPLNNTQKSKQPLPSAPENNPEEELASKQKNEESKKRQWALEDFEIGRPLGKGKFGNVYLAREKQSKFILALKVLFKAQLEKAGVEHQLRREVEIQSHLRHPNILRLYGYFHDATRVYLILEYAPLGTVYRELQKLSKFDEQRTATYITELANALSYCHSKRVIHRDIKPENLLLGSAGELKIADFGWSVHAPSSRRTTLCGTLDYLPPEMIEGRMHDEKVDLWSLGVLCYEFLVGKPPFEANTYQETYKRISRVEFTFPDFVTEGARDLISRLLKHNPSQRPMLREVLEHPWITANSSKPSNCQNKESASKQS

[3] = target: T2, Tyrosine-protein kinase JAK3 (Homo sapiens, UniProt P52333); assay: Enzyme Assay
T2 sequence (P52333 whole entry): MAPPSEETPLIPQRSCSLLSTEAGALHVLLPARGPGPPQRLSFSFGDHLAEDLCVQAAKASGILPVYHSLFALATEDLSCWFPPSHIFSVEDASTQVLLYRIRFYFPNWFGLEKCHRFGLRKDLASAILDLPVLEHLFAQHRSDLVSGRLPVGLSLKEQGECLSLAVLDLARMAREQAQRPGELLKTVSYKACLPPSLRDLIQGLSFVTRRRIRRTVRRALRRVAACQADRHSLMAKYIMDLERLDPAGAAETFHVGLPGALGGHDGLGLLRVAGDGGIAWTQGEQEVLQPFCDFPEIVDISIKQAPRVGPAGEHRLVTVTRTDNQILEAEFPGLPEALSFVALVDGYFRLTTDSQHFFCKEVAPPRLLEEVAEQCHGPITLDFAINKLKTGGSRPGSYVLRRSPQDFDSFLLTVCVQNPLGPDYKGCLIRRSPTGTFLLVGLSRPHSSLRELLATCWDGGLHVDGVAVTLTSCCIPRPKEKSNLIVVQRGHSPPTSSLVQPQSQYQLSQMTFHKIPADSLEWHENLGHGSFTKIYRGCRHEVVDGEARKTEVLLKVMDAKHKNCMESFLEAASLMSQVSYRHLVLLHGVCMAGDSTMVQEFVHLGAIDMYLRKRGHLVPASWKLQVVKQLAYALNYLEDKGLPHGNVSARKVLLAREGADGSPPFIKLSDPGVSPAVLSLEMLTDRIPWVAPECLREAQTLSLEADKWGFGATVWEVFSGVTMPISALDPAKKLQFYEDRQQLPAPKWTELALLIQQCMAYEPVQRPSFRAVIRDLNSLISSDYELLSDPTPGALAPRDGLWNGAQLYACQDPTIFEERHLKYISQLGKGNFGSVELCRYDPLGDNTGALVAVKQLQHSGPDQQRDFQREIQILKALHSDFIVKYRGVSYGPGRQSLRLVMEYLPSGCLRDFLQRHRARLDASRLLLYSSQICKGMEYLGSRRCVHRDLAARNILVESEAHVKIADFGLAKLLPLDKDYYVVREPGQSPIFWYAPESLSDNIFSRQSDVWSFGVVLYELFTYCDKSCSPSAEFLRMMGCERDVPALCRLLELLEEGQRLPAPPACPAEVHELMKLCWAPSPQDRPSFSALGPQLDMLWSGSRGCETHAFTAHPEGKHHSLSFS
Procedure: JAK3: The 2×JAK3/Tyr 06 (ThermoFisher Scientific proprietary) mixture was prepared in 50 mM HEPES pH 7.5. 0.01% BRIJ-35, 10 mM MgCl2, 1 mM EGTA.

[4] = target: T3, Dual specificity protein kinase TTK (Homo sapiens, UniProt P33981); assay: TTK Enzyme Assay
T3 sequence (P33981 whole entry): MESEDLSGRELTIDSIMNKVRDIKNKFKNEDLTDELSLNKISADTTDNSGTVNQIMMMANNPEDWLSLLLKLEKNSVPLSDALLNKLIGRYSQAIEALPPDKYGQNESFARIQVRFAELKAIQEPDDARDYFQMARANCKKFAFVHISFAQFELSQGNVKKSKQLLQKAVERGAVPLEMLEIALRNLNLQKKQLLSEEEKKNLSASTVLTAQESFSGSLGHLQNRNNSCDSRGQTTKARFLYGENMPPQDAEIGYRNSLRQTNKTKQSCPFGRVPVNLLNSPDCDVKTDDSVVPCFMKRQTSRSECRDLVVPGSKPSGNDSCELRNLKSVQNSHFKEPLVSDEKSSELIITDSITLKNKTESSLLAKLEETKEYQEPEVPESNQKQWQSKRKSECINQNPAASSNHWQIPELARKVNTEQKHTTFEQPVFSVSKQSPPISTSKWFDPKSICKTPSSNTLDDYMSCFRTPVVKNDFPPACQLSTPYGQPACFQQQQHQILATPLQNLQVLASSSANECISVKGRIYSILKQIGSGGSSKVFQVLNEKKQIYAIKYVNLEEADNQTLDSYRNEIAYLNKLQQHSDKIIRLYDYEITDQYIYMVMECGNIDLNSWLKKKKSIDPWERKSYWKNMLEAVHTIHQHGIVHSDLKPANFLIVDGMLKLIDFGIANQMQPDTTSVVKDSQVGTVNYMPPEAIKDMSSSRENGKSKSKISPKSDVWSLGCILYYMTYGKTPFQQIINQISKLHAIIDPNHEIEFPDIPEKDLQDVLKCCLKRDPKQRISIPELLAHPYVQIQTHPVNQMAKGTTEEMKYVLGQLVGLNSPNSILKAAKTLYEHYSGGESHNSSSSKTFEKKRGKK
Procedure: The inhibitory activity of compounds against TTK was determined in a LanthaScreen Eu Kinase Binding assay run by ThermoFisher Scientific as part of their SelectScreen Biochemical Kinase Profiling Service. The LanthaScreen Eu Kinase Binding assay format uses binding of an Alexa Fluor conjugate or tracer to a kinase, which is detected by addition of a Eu-labeled anti-tag antibody. […] Plates were then read using a fluorescence plate reader.

[5] = target: Tyrosine-protein kinase JAK2 (Homo sapiens, UniProt O60674); assay: Enzyme Assay
Procedure: JAK2: The 2×JAK2/Tyr 06 (ThermoFisher Scientific proprietary) mixture was prepared in 50 mM HEPES pH 7.5, 0.01% BRIJ-35, 10 mM MgCl2, 1 mM EGTA.

[6] = target: Tyrosine-protein kinase JAK1 (Homo sapiens, UniProt P23458); assay: Enzyme Assay
Sequence of Tyrosine-protein kinase JAK1 (P23458 whole entry): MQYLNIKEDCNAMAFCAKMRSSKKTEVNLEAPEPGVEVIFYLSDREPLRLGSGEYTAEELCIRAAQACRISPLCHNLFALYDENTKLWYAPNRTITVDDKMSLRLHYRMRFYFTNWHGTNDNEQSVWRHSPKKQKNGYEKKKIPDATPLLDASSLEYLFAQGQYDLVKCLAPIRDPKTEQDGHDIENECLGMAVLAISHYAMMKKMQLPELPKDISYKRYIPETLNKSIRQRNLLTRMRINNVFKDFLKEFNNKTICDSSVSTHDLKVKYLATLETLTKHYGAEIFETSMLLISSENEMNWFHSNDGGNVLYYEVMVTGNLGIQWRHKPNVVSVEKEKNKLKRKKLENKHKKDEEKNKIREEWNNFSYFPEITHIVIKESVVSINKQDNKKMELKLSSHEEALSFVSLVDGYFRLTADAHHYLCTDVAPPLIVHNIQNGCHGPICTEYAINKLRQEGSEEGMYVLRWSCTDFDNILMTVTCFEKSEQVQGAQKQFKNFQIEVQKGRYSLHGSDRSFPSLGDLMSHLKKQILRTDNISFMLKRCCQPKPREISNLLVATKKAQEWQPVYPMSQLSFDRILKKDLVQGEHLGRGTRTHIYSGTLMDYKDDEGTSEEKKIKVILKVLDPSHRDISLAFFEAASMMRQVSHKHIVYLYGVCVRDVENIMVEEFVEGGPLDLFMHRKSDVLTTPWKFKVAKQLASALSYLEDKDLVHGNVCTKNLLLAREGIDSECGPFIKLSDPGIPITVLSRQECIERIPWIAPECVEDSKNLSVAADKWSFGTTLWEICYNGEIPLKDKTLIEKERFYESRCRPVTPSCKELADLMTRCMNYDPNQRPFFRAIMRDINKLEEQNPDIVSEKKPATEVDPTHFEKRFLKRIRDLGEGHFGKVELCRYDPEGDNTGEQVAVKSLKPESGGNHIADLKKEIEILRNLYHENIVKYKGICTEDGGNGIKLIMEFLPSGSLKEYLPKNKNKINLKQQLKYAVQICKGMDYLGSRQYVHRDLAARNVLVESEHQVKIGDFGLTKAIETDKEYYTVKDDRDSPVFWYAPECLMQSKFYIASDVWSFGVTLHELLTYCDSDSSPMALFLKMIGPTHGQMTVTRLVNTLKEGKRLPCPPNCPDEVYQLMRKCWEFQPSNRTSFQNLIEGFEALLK
Procedure: JAK1: The 2×JAK/Tyr 06 (ThermoFisher Scientific proprietary) mixture was prepared in 50 mM HEPES pH 6.5, 0.01% BRIJ-35, 10 mM MgCl2, 1 mM EGTA, 0.02% NaN3.

Sequence of Tyrosine-protein kinase JAK2 (O60674 whole entry): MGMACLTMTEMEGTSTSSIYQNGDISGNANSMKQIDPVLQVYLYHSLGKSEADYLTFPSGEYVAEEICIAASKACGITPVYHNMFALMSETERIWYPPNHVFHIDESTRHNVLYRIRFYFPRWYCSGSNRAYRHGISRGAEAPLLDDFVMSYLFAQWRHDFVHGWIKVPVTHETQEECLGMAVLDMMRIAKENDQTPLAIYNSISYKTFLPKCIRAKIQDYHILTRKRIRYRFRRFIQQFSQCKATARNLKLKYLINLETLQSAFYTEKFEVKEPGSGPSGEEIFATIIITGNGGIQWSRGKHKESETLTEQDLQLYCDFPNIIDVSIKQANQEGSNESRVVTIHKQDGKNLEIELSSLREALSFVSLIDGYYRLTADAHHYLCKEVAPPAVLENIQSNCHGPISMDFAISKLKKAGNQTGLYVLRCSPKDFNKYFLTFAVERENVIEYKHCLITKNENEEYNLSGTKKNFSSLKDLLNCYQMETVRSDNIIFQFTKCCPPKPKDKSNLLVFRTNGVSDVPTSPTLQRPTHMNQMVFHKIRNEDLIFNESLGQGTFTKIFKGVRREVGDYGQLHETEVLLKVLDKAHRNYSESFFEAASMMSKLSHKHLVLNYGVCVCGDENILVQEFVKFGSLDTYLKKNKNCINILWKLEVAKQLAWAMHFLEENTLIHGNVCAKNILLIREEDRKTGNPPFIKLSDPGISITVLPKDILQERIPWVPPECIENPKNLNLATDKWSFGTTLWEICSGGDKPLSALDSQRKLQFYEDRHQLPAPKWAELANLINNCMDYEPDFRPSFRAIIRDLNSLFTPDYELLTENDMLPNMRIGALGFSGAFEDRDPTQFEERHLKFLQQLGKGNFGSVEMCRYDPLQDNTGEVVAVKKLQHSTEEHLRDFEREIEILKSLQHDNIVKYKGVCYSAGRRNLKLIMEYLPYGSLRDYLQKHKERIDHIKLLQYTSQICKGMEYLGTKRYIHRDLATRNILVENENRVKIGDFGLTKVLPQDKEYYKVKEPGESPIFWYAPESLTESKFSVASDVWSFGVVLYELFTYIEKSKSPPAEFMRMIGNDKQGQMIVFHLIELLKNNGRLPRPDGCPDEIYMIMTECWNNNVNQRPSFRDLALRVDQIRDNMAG
Sequence of Aurora kinase B (Q96GD4 whole entry): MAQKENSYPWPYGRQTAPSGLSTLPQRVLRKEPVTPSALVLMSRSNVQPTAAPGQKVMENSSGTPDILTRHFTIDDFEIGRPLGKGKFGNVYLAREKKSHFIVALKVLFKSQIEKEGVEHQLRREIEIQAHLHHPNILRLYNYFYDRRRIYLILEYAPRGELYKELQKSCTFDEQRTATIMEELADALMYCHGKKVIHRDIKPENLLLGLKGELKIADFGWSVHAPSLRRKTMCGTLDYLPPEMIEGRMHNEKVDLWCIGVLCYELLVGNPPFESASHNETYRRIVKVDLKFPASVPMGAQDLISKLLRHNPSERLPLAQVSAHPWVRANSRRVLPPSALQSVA

Structure (SMILES)	IC50 [1] [µM]	IC50 [2] [µM]	IC50 [3] [µM]	IC50 [4] [µM]	IC50 [5] [µM]	IC50 [6] [µM]
Cc1cc2ncccc2cc1Nc1ncc2c(n1)n([C@H]1CC[C@@](C)(O)CC1)c(=O)n2C [US11884671, Example 14]	> 10	> 10	> 10	0.1	> 10	> 10
Cc1cc2ncccc2cc1Nc1ncc2c(n1)n([C@H]1CC[C@](C)(O)CC1)c(=O)n2C [US11884671, Example 15]	> 10	> 10	> 10	0.251	> 10	> 10
Cc1cc2nnccc2cc1Nc1ncc2c(n1)n([C@H]1CC[C@@](C)(O)CC1)c(=O)n2C [US11884671, Example 16]	> 10	> 10	> 10	0.2	> 10	> 10
Cc1cc2nnccc2cc1Nc1ncc2c(n1)n([C@H]1CC[C@](C)(O)CC1)c(=O)n2C [US11884671, Example 17]	> 10	> 10	> 10	0.316	> 10	> 10
